Measured values reported in patent publication US8748470B2, “Methods for treating ovarian cancer by inhibiting fatty acid binding proteins” (The University of Chicago, priority 2011, dated 2014).

Assays:
[1] = system: ID8 mouse ovarian cancer cells; experiment: tumor burden in mice after bursal injection of ID8 cells and treatment with FABP4 inhibitor; type: in vivo; conditions: 20 mg/kg body weight daily by oral gavage from day 60 after ID8 injection, assessed after 30 d
Description: (a) Immune competent mice were injected with 1 million ID8 cells under the ovarian bursa. […] Number of metastases (a) and metastatic tumor weight (b) were assessed 30 d after the FABP4 inhibitor or control vehicle treatment.

[2] = system: human ovarian cancer cells (HeyA8 or SKOV3ip1); experiment: ex vivo ovarian cancer cell proliferation on sections of human omentum; type: cell-based; conditions: HeyA8 or SKOV3ip1, fluorescently labeled, 24 h
Description: Representative images (left) and quantified fluorescence (right) were shown. Bars report means±s.e.m.

SKOV3ip1 cells [3] = experiment: lipid accumulation in cancer cells cocultured with primary human omental adipocytes (Bodipy 493/503, confocal microscopy); type: cell-based
Description: (§1) FIGS. 11a-11g FABP4 has a key role in the interaction of cancer cells with adipocytes. (a) Representative immunohistochemical staining (bottom) for FABP4 in serial sections of primary ovarian tumor and corresponding omental metastatic tissues from a subject with stage IIIC advanced serous ovarian cancer (as classified by the International Federation of Gynecology and Obstetrics). Hematoxylin and eosin (H & E) staining is in the top images. The graph on the right is a summary of FABP4 protein expression scoring in 20 subjects, as assessed by immunohistochemistry. The scoring (0, 1 or 2, corresponding to negative, weak or strong) was performed in different tissue compartments: Benign ovarian stroma (A), primary ovarian cancer in the ovary (B), ovarian cancer metastatic to the omentum (C), interface of ovarian cancer cells into adipocytes (Adi) (D), and adipocytes (E). Error bars, ±s.e.m. […]
Lipid visualization. […] Adipocytes and extracellular fatty acids were washed away with HBSS containing 0.2% fatty-acid free BSA and total fluorescence per well in triplicate was quantified. […] Quantification of Bodipy neutral lipid dye was performed using Imaris software (Bitplane Inc., South Windor, Conn.) and normalized to number of nuclei in field (5-10 fields/condition). […]

SKOV3ip1 cells [4] = experiment: invasion assay of SKOV3ip1 cells toward adipocytes; type: cell-based, human; conditions: inhibitor added to coculture; used at 10 μM; 24 h
Description: as §1, with “±s.e.m. (b) Confocal microscopy images of lipid accumulation in SKOV3ip1 cells cocultured with or without primary human omental adipocytes and a FABP4 inhibitor (nuclear counterstaining). One of two experiments, conducted with different human subject samples, is shown. (c) Invasion assay of SKOV3ip1 cells toward adipocytes in the absence or presence of the FABP4 inhibitor HTS01037. Bars report mean fold change±s.e.m. One of two experiments, using two different human subject samples, is shown.” for “±s.e.m.”

HSL phosphorylation = experiment: immunoblot for phosphorylated hormone sensitive lipase (p-HSL) in adipocyte/SKOV3ip1 coculture; type: cell-based, human; conditions: pretreated with 10 μM propranolol
Description: FIGS. 9a-9d Cocultivation of ovarian cancer cells with adipocytes activates lipolysis in adipocytes and β-oxidation in cancer cells. (a) Quantitative RT-PCR for perilipin 1 in primary human omental adipocytes (Adi) cultured with and without SKOV3ip1 ovarian cancer (OvCa) cells. Bars report mean fold change relative to glyceraldehyde 3-phosphate dehydrogenase expression±s.e.m. (b) Immunoblot for phosphorylated hormone sensitive lipase (p-HSL) and total HSL in SKOV3ip1 cells cocultured with (+) and without (−) adipocytes and pretreated with 10 μM propranolol, a β-adrenergic receptor antagonist. (c) SKOV3ip1 cells were cocultured (1 h) with adipocytes, treated with isoproterenol (positive control) or 14-22 amide (negative control) and protein kinase A (PKA) activity was assessed. (d) β-oxidation in MONTY-1 OvCa cells cocultured with primary human adipocytes (L-carnitine, positive control; etomoxir, negative control). The graph reports the average oxidation rate at the indicated times±s.e.m.
Immunoblotting. In coculture experiments, primary human omental adipocytes were added to CMFDA-labeled SKOV3ip1 cells in SFM (1:5, PCV adipocytes:SFM) and incubated for 24 h. The adipocytes were removed and the SKOV3ip1 cells were subjected to FACS sorting to remove any remaining adipocytes in experiments involving FABP4 expression. […]

[5] = system: ID8 mouse ovarian cancer cells; experiment: tumor burden in mice after intraperitoneal injection of shRNA-transfected ID8 cells; type: in vivo; conditions: 10 weeks after intraperitoneal injection of shRNA-transfected ID8 cells, vs control group
Description: (§2) FIGS. 16a-16d Effects of FABP4 downregulation. (a) FABP4 mRNA expression in ID8 mouse ovarian cancer cells transfected with FABP4 small hairpin RNA (shRNA) (F4) or vector control shRNA (VC) in the presence (+) or absence (−) of mouse adipocytes. Bars report means±s.e.m. (b) Tumor burden in mice 10 weeks after intraperitoneal injection of ID8 mouse ovarian cancer cells transfected with 5 million shRNA (F4 or VC). (c) Metastatic tumor burden in mice 10 weeks after intraperitoneal injection of ID8 mouse ovarian cancer cells transfected with 5 million shRNA (F4 or VC). (d) mRNA expression of FABP4 in tumors collected 10 weeks after intraperitonel injection of ID 8 mouse ovarian cancer cells transferred with FABP4 shRNA or vector control shRNA. FABP4 mRNA expression was measured by quantitiative RT-PCR.
Animal experiments. All animal experiments were approved by the Institutional Animal Care and Use Committee, University of Chicago. Xenograft animal experiments and in vivo homing were conducted in female immune-compromised athymic nude mice. […] Tumor volumes were measured as described (Zou et al., 2007) over 24 d and tumor weight determined at the end of the experiment. […] Metastatic tumor weight and number of metastatic nodules were determined at the end of each experiment and tumor tissue fixed in 10% formalin.

FABP4 mRNA = FABP4 mRNA expression in ID8 cells transfected with shRNA (quantitative RT-PCR); type: cell-based, mouse; conditions: ID8 cells transfected with FABP4 shRNA vs vector control
Description: as §2, with “(d) mRNA expression of FABP4 in tumors collected 10 weeks after intraperitonel injection of ID 8 mouse ovarian cancer cells transferred with FABP4 shRNA or vector control shRNA.” left out
Quantitative real-time PCR. […] Real-time quantitative reverse transcription-PCR (RT-PCR) was performed as described (Sawada et al., 2008) using the following probes (Applied Biosystems, Carlsbad, Calif.): acyl-coenzyme A oxidase (ACOX1, Hs01074241_m1), CXCR1 (IL-8 receptor, Hs00174146 ml), carnitine palmitoyltransferase 1a (CPT1a, Hs00912681_m1), fatty acid binding protein 4 (FABP4; human, Hs00609791_m1; mouse, Mm00445878_m1), perilipin 1 (PLIN1, Hs00160173_m1) and glyceraldehyde-3-phosphate dehydrogenase (GAPDH; human, Hs00266705_g1; mouse, Mm99999915_g1). Relative mRNA gene expression was calculated using the 2^−ΔΔCt method as described (Shell et al., 2007). […]

**Q.** For CCc1c(-c2ccccc2)c(-c2ccccc2)nn1-c1ccccc1-c1cccc(OCC(=O)O)c1 [BMS309403, ((2′-(5-ethyl-3,4-diphenyl-1H-pyrazol-1-yl)(1,1′-biphenyl)-3-yl)oxy)-acetic acid], which “tumor burden (number of metastases, metastatic tumor weight)” value [1] is on record?
**A.** significantly reduced

**Q.** What about the “human ovarian cancer cell proliferation on sections of human omentum” value [2] of the same molecule?
**A.** reduces human ovarian cancer cell proliferation

**Q.** With COC(=O)c1sc(-c2cccs2)cc1NC(=O)C=CC(=O)O [HTS01037, 4-{[2-(methoxycarbonyl)-5-(2-thienyl)-3-thienyl]amino}-4-oxo-2-butenoic acid] as the molecule, how does the “lipid uptake in SKOV3ip1 cells cocultured with human omentum adipocytes” value (SKOV3ip1 cells [3]; 36 h coculture, Bodipy 493/503) read?
**A.** prevents lipid uptake

**Q.** What about the “lipid accumulation in the cancer cells” value (SKOV3ip1 cells [3]; inhibitor added to coculture of ovarian cancer cells and adipocytes, used at 10 μM) of the same molecule?
**A.** drastically reduced

**Q.** And the adipocyte-mediated invasion (SKOV3ip1 cells [4])?
**A.** drastically reduced

**Q.** How did the “ovarian cancer cell-induced HSL activation” value (HSL phosphorylation) turn out when CC(C)NCC(O)COc1cccc2ccccc12 (centres unmarked) [propranolol] was run?
**A.** partially reversed

**Q.** How did the “tumor burden, intraperitoneal model” value [5] turn out when “FABP4 shRNA: FABP4 small hairpin RNA (shRNA); comprises a nucleic acid sequence of SEQ ID NO: 1 (CCGGCTGGATGGAAATTTGCATCAACTCGAGTTGATGCAAATTTCCATCCAGTTTTTG)” was run?
**A.** substantially lowered

**Q.** And the “mRNA expression level of FABP4” value (FABP4 mRNA)?
**A.** decreased
